Assays:
mu opioid receptor (MOR) = biological target: T1, mu opioid receptor (MOR) (Homo sapiens, UniProt P35372); assay: OPRMu1 Discover X β-arrestin Assay, antagonist mode (U2OS cells, DAMGO EC80 challenge); format: cell-based
T1 construct: host or cells: U2OS (Discover X OPRMu1-U2OS, PathHunter)
Outline: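 PathHunter U2OS cells with β-gal fragment-complementation readout for β-arrestin recruitment to OPRMu1. Cells were preincubated with compound (10-point, 1:3 series from nominal 10 micromolar) for 30 min at 37 °C, then challenged with 303 nM DAMGO (EC80) for 3 h. Luminescence gave percent inhibition.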

[1] = biological target: T2, kappa opioid receptor (KOR) (Homo sapiens, UniProt P41145); assay: OPRKappa 1 Tango B-Arrestin Assay, antagonist mode (Tango OPRK1-bla U2OS cells, U50488 EC80 challenge); format: cell-based; details: for Selectivity (MOR/KOR): Kappa selectivity, MOR IC50 / KOR IC50; for IC50: antagonist mode, Tango OPRK1-bla U2OS cells, 6 nM U50488 challenge
T2 construct: host or cells: U2OS (Tango OPRK1-bla U2OS)
Outline: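 Tango OPRK1-bla U2OS cells, β-arrestin recruitment read as β-lactamase FRET (CCF4-AM, 460/590 nm emission). Compounds, 10-point 1:3 series from nominal 10 µM in quadruplicate, preincubated 30 min at 37 °C, then challenged with U50488 at 6 nM final (EC80) for 4 h; percent inhibition from median ratio.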

T1 sequence (P35372 whole entry): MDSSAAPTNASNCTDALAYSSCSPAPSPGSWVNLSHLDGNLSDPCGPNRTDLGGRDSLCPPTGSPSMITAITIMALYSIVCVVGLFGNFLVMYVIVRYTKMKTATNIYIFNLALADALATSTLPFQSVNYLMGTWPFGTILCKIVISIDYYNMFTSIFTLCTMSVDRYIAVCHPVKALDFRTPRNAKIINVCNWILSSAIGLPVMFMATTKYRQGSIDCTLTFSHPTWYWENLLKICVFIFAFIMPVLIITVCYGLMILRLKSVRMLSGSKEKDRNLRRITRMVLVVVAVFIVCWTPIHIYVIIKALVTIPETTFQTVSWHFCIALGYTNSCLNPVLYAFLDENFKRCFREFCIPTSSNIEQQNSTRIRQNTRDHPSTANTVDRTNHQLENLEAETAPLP
T2 sequence (P41145 whole entry): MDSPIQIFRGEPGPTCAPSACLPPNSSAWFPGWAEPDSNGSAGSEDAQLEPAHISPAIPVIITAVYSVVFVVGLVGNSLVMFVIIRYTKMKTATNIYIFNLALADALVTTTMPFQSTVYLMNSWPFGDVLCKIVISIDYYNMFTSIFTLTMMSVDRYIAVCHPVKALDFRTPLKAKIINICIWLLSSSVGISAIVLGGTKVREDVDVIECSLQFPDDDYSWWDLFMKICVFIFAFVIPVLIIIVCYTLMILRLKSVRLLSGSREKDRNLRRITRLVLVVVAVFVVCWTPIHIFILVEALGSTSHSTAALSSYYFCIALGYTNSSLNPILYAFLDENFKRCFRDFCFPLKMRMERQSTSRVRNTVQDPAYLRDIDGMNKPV

Row | IC50 (mu opioid receptor (MOR)) [nM] | IC50 [1] [nM] | Compound | Selectivity (MOR/KOR) [1]
1 | > 1000 | 1 to 10 | CCc1cc(F)c2nc(N3CCC(N[C@H]4CCOC4)CC3)c(-c3cc(C)n(C)n3)c(C)c2c1 [Compound 18, (S)-1-(3-(1,5-dimethyl-1H-pyrazol-3-yl)-6-ethyl-8-fluoro-4-methylquinolin-2-yl)-N-(tetrahydrofuran-3-yl)piperidin-4-amine] | +++ (between 100- to 1000-fold selective)
2 | 100 to 1000 | 1 to 10 | CCc1cc(F)c2nc(N3CC[C@H](N[C@@H]4CCOC4)[C@@H](C)C3)c(-c3ccn(C)n3)c(C)c2c1 [Compound 108] | +++ (between 100- to 1000-fold selective)
3 | 100 to 1000 | 10 to 100 | CCc1cc(F)c2nc(N3CCC(N[C@@H]4CCOC[C@H]4F)CC3)c(-c3cc(C)n(C)n3)c(C)c2c1 [Compound 4, 1-(3-(1,5-dimethyl-1H-pyrazol-3-yl)-6-ethyl-8-fluoro-4-methylquinolin-2-yl)-N-((3S,4R)-3-fluorotetrahydro-2H-pyran-4-yl)piperidin-4-amine] | ++ (between 10- and 100-fold selectivity)
4 | 100 to 1000 | 1 to 10 | CCc1cc(F)c2nc(N3CCC(N[C@H]4CCOC[C@@H]4O)CC3)c(-c3cc(C)n(C)n3)c(C)c2c1 [Compound 16, (3R,4S)-4-((1-(3-(1,5-dimethyl-1H-pyrazol-3-yl)-6-ethyl-8-fluoro-4-methylquinolin-2-yl)piperidin-4-yl)amino)tetrahydro-2H-pyran-3-ol] | ++ (between 10- and 100-fold selectivity)
5 | > 1000 | ≥ 100 | CCc1cc(F)c2nc(N3CC[C@H](NC4CCOCC4)[C@H](F)C3)c(-c3cc(C(F)(F)F)n(C)n3)c(C)c2c1 (stereo in doubt) [Compound 83] | +++ (between 100- to 1000-fold selective)
6 | 10 to 100 | 1 to 10 | CCc1cc(-c2ccnn2C)c2nc(N3CCC(N[C@H]4CCOC[C@H]4F)CC3)c(-c3ccn(C)n3)c(C)c2c1 [Compound 21, 1-(6-ethyl-4-methyl-3-(1-methyl-1H-pyrazol-3-yl)-8-(1-methyl-1H-pyrazol-5-yl)quinolin-2-yl)-N-((3S,4S)-3-fluorotetrahydro-2H-pyran-4-yl)piperidin-4-amine] | ++ (between 10- and 100-fold selectivity)
7 | > 1000 | 1 to 10 | CCc1cc(F)c2nc(N3CC[C@H](NC4CCOCC4)[C@H](F)C3)c(-c3nn(C)cc3F)c(C)c2c1F [Compound 70] | +++ (between 100- to 1000-fold selective)
8 | 100 to 1000 | < 1 | CCc1cc(C#N)c2nc(N3CCC(N[C@H]4CCOC[C@@H]4F)CC3)c(-c3ccn(C)n3)c(C)c2c1 [Compound 77] | +++ (between 100- to 1000-fold selective)

The remaining lines, values behind:

Row | Compound | IC50 (mu opioid receptor (MOR)) [nM] | IC50 [1] [nM] | Selectivity (MOR/KOR) [1]
9 | CCc1cc(F)c2nc(N3CCN(C(=O)CN(C)C)C[C@H]3C)c(-c3nc(C)no3)c(C)c2c1 [Compound 44] | > 1000 | 10 to 100 | +++ (between 100- to 1000-fold selective)
10 | CCc1cc(F)c2nc(N3CC[C@@H](N[C@@H]4CCCOC4)C[C@H]3C)c(-c3ccn(C)n3)c(C)c2c1 [Compound 119] | 100 to 1000 | < 1 | ++++ (more than 1000-fold selectivity over MOR)
11 | CCc1cc(F)c2nc(N3CCN(C(=O)[C@@H]4COCCN4C)C[C@H]3C)c(-c3nc(C)no3)c(C)c2c1 [Compound 185] | > 1000 | 10 to 100 | +++ (between 100- to 1000-fold selective)
12 | CCc1cc(-c2ccnn2C)c2nc(N3CCC(N)CC3)c(-c3ccn(C)n3)c(C)c2c1 [Compound 23, 1-(6-ethyl-4-methyl-3-(1-methyl-1H-pyrazol-3-yl)-8-(1-methyl-1H-pyrazol-5-yl)quinolin-2-yl)piperidin-4-amine] | > 1000 | ≥ 100 | + (less than 10-fold selectivity)
13 | CCc1cc(F)c2nc(N3CCN(C(=O)[C@H]4CC(F)(F)CCN4C)C[C@H]3C)c(-c3nc(C)no3)c(C)c2c1 [Compound 205, ((R)-4,4-difluoro-1-methylpiperidin-2-yl)((R)-4-(6-ethyl-8-fluoro-4-methyl-3-(3-methyl-1,2,4-oxadiazol-5-yl)quinolin-2-yl)-3-methylpiperazin-1-yl)methanone] | > 1000 | 1 to 10 | +++ (between 100- to 1000-fold selective)
14 | CCc1cc(F)c2nc(N3CCN(C4CCOCC4)C[C@@H]3C)c(-c3nc(C)no3)c(C)c2c1 [Compound 27, (S)-5-(6-ethyl-8-fluoro-4-methyl-2-(2-methyl-4-(tetrahydro-2H-pyran-4-yl)piperazin-1-yl)quinolin-3-yl)-3-methyl-1,2,4-oxadiazole] | > 1000 | ≥ 100 | ++ (between 10- and 100-fold selectivity)
15 | CCc1cc(F)c2nc(N3CC[C@H](N[C@@H]4CCCOC4)C[C@@H]3C)c(-c3ccn(C)n3)c(C)c2c1 [Compound 121] | > 1000 | 10 to 100 | +++ (between 100- to 1000-fold selective)
16 | CCc1cc(F)c2nc(N3CCN(C(=O)CN4CCC(F)(F)CC4)C[C@H]3C)c(-c3nc(C)no3)c(C)c2c1 [Compound 156] | 100 to 1000 | 1 to 10 | ++ (between 10- and 100-fold selectivity)
17 | CCN/C(=N/C#N)N1CCN(c2nc3c(F)cc(CC)cc3c(C)c2-c2ccn(C)n2)[C@H](C)C1 [Compound 10, (R,E)-N′-cyano-N-ethyl-4-(6-ethyl-8-fluoro-4-methyl-3-(1-methyl-1H-pyrazol-3-yl)quinolin-2-yl)-3-methylpiperazine-1-carboximidamide] | > 1000 | ≥ 100 | ++ (between 10- and 100-fold selectivity)
18 | CCc1cc(F)c2nc(N3CCN(C(=O)[C@H](C(C)C)N4CCCC4)C[C@H]3C)c(-c3nc(C)no3)c(C)c2c1 [Compound 152] | > 1000 | 1 to 10 | +++ (between 100- to 1000-fold selective)
19 | CCc1cc(-c2ccnn2C)c2nc(N3CCC(N4CCOC[C@H]4C)CC3)c(-c3ccn(C)n3)c(C)c2c1 [Compound 93] | > 1000 | > 1000 | –
20 | CCc1cc(F)c2nc(N3CCN(CC4CC(F)(F)C4)C[C@H]3C)c(-c3nc(C)no3)c(C)c2c1 [Compound 59, (R)-5-(2-(4-((3,3-difluorocyclobutyl)methyl)-2-methylpiperazin-1-yl)-6-ethyl-8-fluoro-4-methylquinolin-3-yl)-3-methyl-1,2,4-oxadiazole] | > 1000 | 10 to 100 | +++ (between 100- to 1000-fold selective)
21 | CCc1cc(C#N)c2nc(N3CCC(N4CCOC[C@H]4C)CC3)c(-c3ccn(C)n3)c(C)c2c1 [Compound 82] | > 1000 | 10 to 100 | ++ (between 10- and 100-fold selectivity)
22 | CCc1cc(F)c2nc(N3CCNC[C@H]3C)c(-c3ccn(C)n3)c(C)c2c1 [Compound 13, (R)-6-ethyl-8-fluoro-4-methyl-3-(1-methyl-1H-pyrazol-3-yl)-2-(2-methylpiperazin-1-yl)quinoline] | > 1000 | ≥ 100 | ++ (between 10- and 100-fold selectivity)
23 | CCc1cc(F)c2nc(N3CCN(C(=O)[C@@H](C)N4CC[C@@H](F)C4)C[C@H]3C)c(-c3nc(C)no3)c(C)c2c1 [Compound 147] | 100 to 1000 | 1 to 10 | +++ (between 100- to 1000-fold selective)

Reference: US20260115185A1, “QUINOLINE DERIVATIVES WHICH ACT AS KAPPA-OPIOID RECEPTOR ANTAGONISTS” (The Scripps Research Institute, priority 2023, published 2026)
